“And” between values parts separate entries of the source, which are not always exact repeats. Identical values can stand only once. No end group written: not given here.
Tests used:
EV71 = test: Anti-EV71 efficiency in RD cells, viral RNA by qRT-PCR; type: cell-based, enterovirus 71; conditions: 24 h, control infected without polypeptide
Procedure: • (1) RD cells were plated in five 100 mm dishes. • (2) After the cells reached 70%-80% confluence, the MEM medium containing 10% serum was replaced with a MEM medium containing 2% serum. […] When the changes were obvious, samples were collected as follows. • (4) The supernatant in the 100 mm dish was transferred into a 15 ml centrifuge tube, and centrifuged at 500 g for 5 min. • (5) The supernatant was transferred into a new 15 ml centrifuge tube, and filtered through 0.22 μm filter membrane with a 50 ml syringe. • (6) RNA was extracted from 100 μl of the supernatant obtained in step (5) and subjected to one step qRT-PCR to measure the virus titer, and the previously extracted virus RNA with known titer was handled together as a control. 3. Measure Antiviral Efficiency of Polypeptide in RD Cells. • (1) Different cells were plated in 24-well cell plates. • (2) After the cells reached 70%-80% confluence, the MEM medium containing 10% serum was replaced with a MEM medium containing 2% serum (0.5 ml/well), and 5 μl of 10^6 PFU/mL EV71 viruses per well were added. • (3) After 1 h, different polypeptides were added at a final concentration of 0.01 μM, 0.1 μM, 1 μM, 10 μM, and 50 μM, respectively. • (4) Samples were collected 24 hours after virus infection, and RNA was extracted with total RNA extraction kit as follows. • (5) The supernatant in the wells was discarded, then 350 μl of TRK Lysis Buffer was added to each well and the plate was shaken on the shaker for 5 minutes. • (6) 350 μl of 70% ethanol (DEPC-treated) was added to the well and the plate was shaken on the shaker for 5 minutes. • (7) The mixture in the well was transferred to a RNA extraction column and centrifuged at 12,000 g for 1 min. • (8) The solution collected in the recovery tube was added back to the column and centrifuged at 12,000 g for 1 min. • (9) RNA washing buffer 1 was added to the column and centrifuged at 12,000 g for 30 s. • (10) RNA washing buffer 2 was added to the column and centrifuged at 12,000 g for 1 min. • (11) Step (10) was repeated once. • (12) The column was centrifuged at 12000 g for 2 min to completely remove residual RNA washing buffer. • (13) 50 μl DEPC-treated H2O was added to the column and centrifuge at 12,000 g for 2 min. • (14) 2 μl RNA sample was used according to one step qRT-PCR kit for fluorescence quantification experiment.
RD cells added with R8 penetrating peptide (sequence: RRRRRRRR) were used as a negative control.
RD cells were used to test the antiviral effect of polypeptide P2. EV71 (MOI=0.1) was added to RD cells at 80% confluence. After 1 hour of infection, polypeptide P2 was added at concentrations of 0.01 μM, 0.1 μM, 1 μM, 10 μM, and 50 μM, respectively. The samples were collected 24 hours later, and the total RNA was extracted. The level of viral genomic RNA was detected by qRT-PCR. The cells infected with the same type virus and added with penetrating peptide R8 were used as a control group.
• (1) RD cells were plated in five 100 mm dishes. • (2) After the cells reached 70%-80% confluence, the MEM medium containing 10% serum was replaced with a MEM medium containing 2% serum. […] When the changes were obvious, samples were collected as follows. • (4) The supernatant in the 100 mm dish was transferred into a 15 ml centrifuge tube, and centrifuged at 500 g for 5 min. • (5) The supernatant was transferred into a new 15 ml centrifuge tube, and filtered through 0.22 μm filter membrane with a 50 ml syringe. • (6) RNA was extracted from 100 μl of the supernatant obtained in step (5) and subjected to one step qRT-PCR to measure the virus titer, and the previously extracted virus RNA with known titer was handled together as a control. 3. […]

[1] = Cytotoxicity by CCK-8 in RD cells; type: cell-based; conditions: human; for viability at 24 h, 0.01 µM: 0.01 μM polypeptide; for viability at 24 h, 0.01 µM / viability at 24 h, 0.1 µM / viability at 24 h, 1 µM / viability at 24 h, 10 µM / viability at 24 h, 100 µM: untreated = 100%, read-out: Cell viability (%); for viability at 24 h, 0.1 µM: 0.1 μM polypeptide; for viability at 24 h, 1 µM: 1 μM polypeptide; for viability at 24 h, 10 µM: 10 μM polypeptide; for viability at 24 h, 100 µM: 100 μM polypeptide; for CC50 at 24 h: Table 1 summary, cell line not given, read-out: CC50
Procedure: (§1) The experiment was performed as follows. • (1) RD cells were plated in a 96-well plate at 100 μl per well. • (2) After the cells reached 70%-80% confluence, the MEM medium containing 10% serum was replaced with a MEM medium containing 2% serum. Then, polypeptide P2 was added to generate gradient concentrations of 0.01 μM, 0.1 μM, 1 μM, 10 μM, and 100 μM (final concentration), respectively. • (3) The test was performed 24 hours after the addition of the polypeptide, and 10 μl of viable cell detection reagent CCK-8 was added to each well and mixed well. • (4) The plate was incubated at 37° C. for 2 h. • (5) The absorbance value at OD450 was measured with a microplate reader.
as §1, with “P1” for “P2”, “concentrations),” for “concentration),”
(§2) RD cells were used to test the antiviral effect of polypeptide P1. When RD cells reached 80% confluence, polypeptide P1 was added at concentrations of 0 μM (control group), 0.01 μM, 0.1 μM, 1 μM, 10 μM, and 100 μM, respectively. Three parallel wells were used for each concentration. The test was carried out 24 hours later, and the cell viability was detected using the CCK-8 kit.
as §1, with “3A-TAT-EP” for “P2”, “concentrations),” for “concentration),”
(§3) RD cells were used to test the antiviral effect of polypeptide 3A-TAT-EP. When RD cells reached 80% confluence, polypeptide 3A-TAT-EP was added at concentrations of 0 μM (control group), 0.01 μM, 0.1 μM, 1 μM, 10 μM, and 100 μM, respectively. Three parallel wells were used for each concentration. The test was carried out 24 hours later, and the cell viability was detected using the CCK-8 kit.
as §1, with “Then, 3A-EP-DRI or 3A-EP-PEG4-PA” for “Then, polypeptide P2”, “and 50” for “and 100”, “(final concentrations),” for “(final concentration),”
(§4) RD cells were used to test the antiviral effect of polypeptides 3A-EP-DRI and 3A-EP-PEG4-PA. When RD cells reached 80% confluence, polypeptide 3A-EP-DRI or 3A-EP-PEG4-PA was added at concentrations of 0 μM (control group), 0.01 μM, 0.1 μM, 1 μM, 10 μM, and 50 μM, respectively. Three parallel wells were used for each concentration. The test was carried out 24 hours later, and the cell viability was detected using the CCK-8 kit. […]

RD cells = test: Cytotoxicity by CCK-8 in RD cells; type: cell-based; conditions: RD cells; for Cell viability (%): 24 h, untreated = 100%; for cytotoxicity, result in words: CCK-8, 24 h
Procedure: as §1
as §1, with “P1” for “P2”, “concentrations),” for “concentration),”
as §2
as §1, with “3A-TAT-EP” for “P2”, “concentrations),” for “concentration),”
as §3
as §1, with “Then, 3A-EP-DRI or 3A-EP-PEG4-PA” for “Then, polypeptide P2”, “and 50” for “and 100”, “(final concentrations),” for “(final concentration),”
as §4

Compound	Relative viral RNA amount (%) (EV71; EV71 MOI=0.1, 0.01 μM)	Relative viral RNA amount (%) (EV71; EV71 MOI=0.1, 0.1 μM)	Relative viral RNA amount (%) (EV71; EV71 MOI=0.1, 1 μM)	Relative viral RNA amount (%) (EV71; EV71 MOI=0.1, 10 μM)	viability at 24 h, 0.01 µM ([1]; RD cells) [%]	viability at 24 h, 0.1 µM ([1]; RD cells) [%]	viability at 24 h, 1 µM ([1]; RD cells) [%]	viability at 24 h, 10 µM ([1]; RD cells) [%]	viability at 24 h, 100 µM ([1]; RD cells) [%]	CC50 at 24 h [1] [µM]	Cell viability (%) (RD cells; 0.01 μM polypeptide)	Cell viability (%) (RD cells; 0.1 μM polypeptide)	Cell viability (%) (RD cells; 1 μM polypeptide)	Cell viability (%) (RD cells; 10 μM polypeptide)	Cell viability (%) (RD cells; 100 μM polypeptide)	cytotoxicity, result in words (RD cells)	viability at 24 h ([1]; RD cells, Cell viability (%)) [%]
CCCCCCCCCCCCCCCC(=O)NCCCC[C@H](NC(=O)CCNC(=O)[C@@H]1CCCN1C(=O)[C@@H](NC(=O)[C@@H](NC(=O)[C@H](Cc1c[nH]c2ccccc12)NC(=O)CNC(=O)[C@H](CCC(N)=O)NC(=O)[C@H](CCC(=O)O)NC(=O)[C@H](CCCNC(=N)N)NC(=O)[C@H](CS)NC(=O)[C@H](Cc1ccc(O)cc1)NC(=O)[C@H](CCC(N)=O)NC(=O)[C@H](CCCNC(=N)N)NC(=O)[C@@H](NC(=O)[C@H](CCC(=O)O)NC(=O)[C@@H](N)CCC(=O)O)C(C)C)[C@@H](C)CC)[C@@H](C)CC)C(=O)O [EP-PA]	83.07% and 76.47% and 56.74%	79.01% and 67.55% and 53.7%	86.29% and 75.98% and 56.91%	–	–	–	–	–	–	–	–	–	–	–	–	–	–
EP-CHOL: SEQ ID NO: 9, EEVRQYCREQGWIIP-AK-cholesterol (Chol)	75.49% and 59.54% and 59.75%	75.76% and 70.99% and 60.98%	96.78% and 76.07% and 59.55%	39.12% and 66.18% and 37.09%	–	–	–	–	–	–	–	–	–	–	–	–	–
CC[C@H](C)[C@H](NC(=O)[C@H](Cc1c[nH]c2ccccc12)NC(=O)CNC(=O)[C@H](CCC(N)=O)NC(=O)[C@H](CCC(=O)O)NC(=O)[C@H](CCCNC(=N)N)NC(=O)[C@H](CS)NC(=O)[C@H](Cc1ccc(O)cc1)NC(=O)[C@H](CCC(N)=O)NC(=O)[C@H](CCCNC(=N)N)NC(=O)[C@@H](NC(=O)[C@H](CCC(=O)O)NC(=O)[C@H](CCC(=O)O)NC(=O)CNC(=O)[C@H](CO)NC(=O)CNC(=O)[C@H](CCCNC(=N)N)NC(=O)[C@H](CCCNC(=N)N)NC(=O)[C@H](CCCNC(=N)N)NC(=O)[C@H](CCC(N)=O)NC(=O)[C@H](CCCNC(=N)N)NC(=O)[C@H](CCCNC(=N)N)NC(=O)[C@H](CCCCN)NC(=O)[C@H](CCCCN)NC(=O)[C@H](CCCNC(=N)N)NC(=O)CNC(=O)[C@@H](N)Cc1ccc(O)cc1)C(C)C)C(=O)N[C@H](C(=O)N1CCC[C@H]1C(=O)O)[C@@H](C)CC [3A-TAT-EP]	–	–	–	–	103	106	103	103	100	> 100	98.82% and 106.3%	104.9% and 99.14%	105.5% and 102.9%	107.1% and 98.61%	97.06% and 98.38%	not toxic to cells within 100 μM	–
N=C(N)NCCC[C@H](NC(=O)[C@H](CCCNC(=N)N)NC(=O)[C@H](CCCNC(=N)N)NC(=O)[C@H](CCCNC(=N)N)NC(=O)[C@H](CCCNC(=N)N)NC(=O)[C@H](CCCNC(=N)N)NC(=O)[C@H](CCCNC(=N)N)NC(=O)[C@@H](N)CCCNC(=N)N)C(=O)O [R8, reference compound]	–	–	–	–	–	–	–	–	–	–	–	–	–	–	–	–	104
RRRRRRRRAISDLLAS [P1]	–	–	–	–	103	106	103	103	100	> 100	98.82% and 106.3%	104.9% and 99.14%	105.5% and 102.9%	107.1% and 98.61%	97.06% and 98.38%	not toxic to cells within 100 μM	–

— patent US11999806B2, “Broad-spectrum polypeptide against enterovirus and application thereof” (WUHAN INSTITUTE OF VIROLOGY, CHINESE ACADEMY OF SCIENCES, priority 2018, dated 2024)
